pIC50: −log10 of the molar value. Like-named read-outs stand apart in the source and are kept apart here.
Experiments:
Format in all cases: cell-based
[1] = system: HT29 cells; assay: IL-1-induced IL-8 release in HT29 cells; conditions: Homo sapiens, HT-29, IL-1β-stimulated HT29 cells, read-out: IC50 Values for Inhibition of Cytokine Release HT29 cells IL-8
Method: HT29 cells, a human colon adenocarcinoma cell line, are plated in a 96 well plate (24 hrs) and pre-treated with compounds at the desired concentration for 2 hours before addition of 5 ng/mL of IL-1β (Abcam) for 24 hours. Supernatants are harvested for IL-8 quantification by Sandwich ELISA (Duo-set, R&D System). The IC50 is determined from the dose response curve.

[2] = system: d-U937 cells; assay: LPS-induced TNFα/IL-8 release in d-U937 cells; conditions: Homo sapiens, dU937, LPS-stimulated d-U937 cells
Method: U937 cells, a human monocytic cell line, are differentiated to macrophage-type cells by incubation with phorbol myristate acetate (PMA; 100 ng/mL) for 48 to 72 hr. Cells are pre-incubated with final concentrations of test compound for 2 hr and are then stimulated with 0.1 μg/mL of LPS (from E. Coli: 0111:B4, Sigma) for 4 hr. The supernatant is collected for determination of TNFα and IL-8 concentrations by sandwich ELISA (Duo-set, R&D systems). The inhibition of TNFα production is calculated as a percentage of that achieved by 10 μg/mL of BIRB796 at each concentration of test compound by comparison against vehicle control. The relative 50% effective concentration (REC50) is determined from the resultant concentration-response curve. The inhibition of IL-8 production is calculated at each concentration of test compound by comparison with vehicle control. The 50% inhibitory concentration (IC50) is determined from the resultant concentration-response curve.

[3] = system: intestinal mucosa biopsies from the inflamed regions of the colon of ulcerative colitis patients; assay: Human biopsy assay (ex-vivo cytokine release); conditions: 1 μg/mL, 24 hours; for Cytokine (IL-1β, IL-6 and IL-8) release compared to the DMSO control: biopsies from ulcerative colitis patients; for IL-1β release from biopsies of UC patients / IL-6 release from biopsies of UC patients / IL-8 release from biopsies of UC patients: relative to DMSO control = 100%
Method: Intestinal mucosa biopsies are obtained from the inflamed regions of the colon of IBD patients. The biopsy material is cut into small pieces (2-3 mm) and placed on steel grids in an organ culture chamber at 37° C. in a 5% CO2/95% O2 atmosphere in serum-free media. DMSO control or test compounds at the desired concentration are added to the tissue and incubated for 24 hr in the organ culture chamber. The supernatant is harvested for determination of IL-6, IL-8, IL-1P and TNFα levels by R&D ELISA.
Percentage inhibition of cytokine release by the test compounds is calculated relative to the cytokine release determined for the DMSO control (100%).

[4] = IL-8, read-out: IC50 Values for Inhibition of Cytokine Release dU937 cells IL-8

Row | Structure (SMILES) | pIC50 [1] | pIC50 [2, 4] | pIC50 ([2]; TNFα (method describes REC50 relative to BIRB796), read-out: IC50 Values for Inhibition of Cytokine Release dU937 cells TNFα) | Cytokine (IL-1β, IL-6 and IL-8) release compared to the DMSO control [3] | IL-1β release from biopsies of UC patients [3] [%] | IL-6 release from biopsies of UC patients [3] [%] | IL-8 release from biopsies of UC patients [3] [%]
1 | C#CC(C)(C)c1cc(NC(=O)Nc2ccc(Oc3ccnc(Nc4cc(C)c5[nH]ncc5c4)n3)c3ccccc23)n(-c2ccc(C)cc2)n1 [Example 2, 1-(4-((2-((7-Methyl-1H-indazol-5-yl)amino)pyrimidin-4-yl)oxy)naphthalen-1-yl)-3-(3-(2-methylbut-3-yn-2-yl)-1-(p-tolyl)-1H-pyrazol-5-yl)urea] | 8.49 | 9.05 | 9.40 | significantly inhibited | 20 ± 13 | 37 ± 41 | 22 ± 21
2 | C#CC(C)(C)c1cc(NC(=O)Nc2ccc(Oc3ccnc(Nc4cc(OC)cc(OCCOCCOCCOC)c4)n3)c3ccccc23)n(-c2ccc(C)cc2)n1 [Example 13, 1-(4-((2-((3-Methoxy-5-(2-(2-(2-methoxyethoxy)ethoxy)ethoxy)phenyl)amino)pyrimidin-4-yl)oxy)naphthalen-1-yl)-3-(3-(2-methylbut-3-yn-2-yl)-1-(p-tolyl)-1H-pyrazol-5-yl)urea] | 8.77 | 9.30 |  | significantly inhibited | 3 ± 3 | 37 ± 52 | 7 ± 8
